Source: patent US11225505B2, “Antimicrobial polymyxin derivative compounds” (MONASH UNIVERSITY, priority 2015, dated 2022)
In brackets after ≈: the same amount, converted by molar mass. Where a SMILES comes first, the peptide text is derived from it. Bridges are numbered along the chain shown (N, C = ends). [ ]: non-standard residue; d: D form. The star is where a group is joined. X14 = O=C(c1ccc(C(F)(F)F)cn1)*; X52 = O=C(c1nc2ccccc2s1)*; Dab = NCC[C@H](N)C(=O)O; Abu = CC[C@H](N)C(=O)O; Dap = NC[C@H](N)C(=O)O

What was measured:
[1] = tested on: Acinetobacter baumannii ATCC 17978; assay type: cell-based; conditions: A. baumannii ATCC 17978; CAMHB broth microdilution
Outline: (§1)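 MIC; CLSI broth microdilution; cation-adjusted MH broth; test articles as TFA salts; polymyxin B control; polymyxin-susceptible isolates.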

[2] = tested on: Acinetobacter baumannii FADDI-AB034; assay type: cell-based; conditions: A. baumannii FADDI-AB034; CAMHB broth microdilution
Outline: as §1

[3] = tested on: Enterobacter cloacae FADDI-EC001; assay type: cell-based; conditions: E. cloacae FADDI-EC001; CAMHB broth microdilution
Outline: (§2)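 Broth microdilution MIC per CLSI in cation-adjusted Mueller-Hinton broth, lipopeptides tested as TFA salts. Polymyxin B sulphate served as control.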

[4] = tested on: Enterobacter cloacae FADDI-EC003; assay type: cell-based; conditions: E. cloacae FADDI-EC003; CAMHB broth microdilution
Outline: as §1

[5] = tested on: Enterobacter cloacae FADDI-EC006; assay type: cell-based; conditions: E. cloacae FADDI-EC006; CAMHB broth microdilution
Outline: as §1

[6] = tested on: Klebsiella pneumoniae FADDI-KP022; assay type: cell-based; conditions: K. pneumoniae FADDI-KP022; CAMHB broth microdilution
Outline: as §1

[7] = tested on: Klebsiella pneumoniae FADDI-KP032; assay type: cell-based; conditions: K. pneumoniae FADDI-KP032; CAMHB broth microdilution
Outline: as §1

[8] = tested on: Klebsiella pneumoniae Kp BM1; assay type: cell-based; conditions: K. pneumoniae Kp BM1; CAMHB broth microdilution
Outline: as §2

[9] = tested on: Pseudomonas aeruginosa ATCC 27853; assay type: cell-based; conditions: P. aeruginosa ATCC 27853; CAMHB broth microdilution
Outline: as §1

[10] = tested on: Pseudomonas aeruginosa FADDI-PA01; assay type: cell-based; conditions: P. aeruginosa FADDI-PA01; CAMHB broth microdilution
Outline: as §1

[11] = tested on: Pseudomonas aeruginosa FADDI-PA022; assay type: cell-based; conditions: P. aeruginosa FADDI-PA022; CAMHB broth microdilution
Outline: as §1

[12] = tested on: Pseudomonas aeruginosa FADDI-PA038; assay type: cell-based; conditions: P. aeruginosa FADDI-PA038; CAMHB broth microdilution
Outline: as §1

[13] = tested on: Acinetobacter baumannii FADDI-AB030; experiment: microbe, parasite or virus in culture; assay type: cell-based; conditions: A. baumannii FADDI-AB030; CAMHB broth microdilution
Outline: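 Broth microdilution MIC in cation-adjusted Mueller-Hinton broth per CLSI M100-S24; lipopeptides tested as TFA salts. FADDI-AB030 is a multidrug-resistant clinical isolate. Polymyxin B sulphate served as control.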

[14] = tested on: mouse kidney; experiment: Nephrotoxicity in a mouse model (kidney histology); assay type: in vivo; conditions: for Max Overall Kidney Histological Score / Max Kidney Histological Score: mice (n=3), subcutaneous 12 mg/kg free base every 2 h, 6 doses in one day; for Max Overall Kidney Histological Score: kidney ~20 h after last dose; for Max Kidney Histological Score: semiquantitative score 0 to +5
Description: Polymyxin B sulphate and colistin sulphate were supplied by Betapharma (Shanghai Co., Ltd, China). Stock solutions of compounds in saline (5 mg base/mL) were stored at 4° C. before use. Mice (n=3) were subcutaneously administered with the compound at 12 mg/kg of the free base form every 2 h, 6 doses in one day. At approximately 20 h after the last dose, mice were euthanised by inhalation of an overdose of isoflurane. Immediately after blood sampling, the right kidney from each mouse was collected immediately and placed in 10% formalin in 5 mL plastic tubes and the left kidney placed in a pre-weighed 14 mL plastic tubes, weighed again and stored at −20° C. pending homogenization and analysis of polymyxin B and colistin. The frozen kidney samples were thawed, homogenized in 2 mL of Milli-Q water and stored in a −20° C. freezer. The formalin-fixed kidneys were then sent to the Australian Phenomics Network-Histopathology and Organ Pathology (The University of Melbourne, Parkville, Australia) for histological examination. Samples were examined by a pathologist who was blind to the treatment groups.
Lesions were rated as follows: mild acute tubular damage with tubular dilation, prominent nuclei and a few pale tubular casts (Grade 1); severe acute tubular damage with necrosis of tubular epithelial cells and numerous tubular casts (Grade 2); acute cortical necrosis/infarction of tubules and glomeruli with or without papillary necrosis (Grade 3). The grades were given the following scores: grade 1=1, grade 2=4, and grade 3=10. The percentage of area of the kidney slice showing histological damage was scored as follows: <1%=0, 1 to <5%=1, 5 to <10%=2, 10 to <20%=3, 20 to <30%=4, 30 to <40%=5, and >40%=6. The overall kidney histological score was calculated as the product of the percentage score and grade score. These scores were then expressed as a semiquantitative score (Kidney Histological Score) on a scale of 0 to +5 for renal histological changes. These scores were assigned as follows: SQS 0=no significant change (overall score, <1); SQS +1=mild damage (overall score, 1 to <15); SQS +2=mild to moderate damage (overall score, 15 to <30); SQS +3=moderate damage (overall score, 30 to <45); SQS +4=moderate to severe damage (overall score, 45 to <60); and SQS +5=severe damage (overall score, ≥60) (Yousef, J., et al., (2011) Antimicrob. Agents and Chemother. 55 (9), 4044-4049).
Any compound with a kidney histological score of ≤+1.0 is considered to have a low nephrotoxicity in this model.

| Compound | Minimum inhibitory concentration [1] [µg/mL] | Minimum inhibitory concentration [2] [µg/mL] | Minimum inhibitory concentration [3] [µg/mL] | Minimum inhibitory concentration [4] [µg/mL] | Minimum inhibitory concentration [5] [µg/mL] | Minimum inhibitory concentration [6] [µg/mL] | Minimum inhibitory concentration [7] [µg/mL] | Minimum inhibitory concentration [8] [µg/mL] | Minimum inhibitory concentration [9] [µg/mL] | Minimum inhibitory concentration [10] [µg/mL] | Minimum inhibitory concentration [11] [µg/mL] | Minimum inhibitory concentration [12] [µg/mL] | Minimum inhibitory concentration [13] [µg/mL] | Max Overall Kidney Histological Score [14] | Max Kidney Histological Score [14] | nephrotoxicity in the mouse model (in words) ([14]; 12 mg/kg every 2 h, 6 doses, subcutaneous) |
| --- | --- | --- | --- | --- | --- | --- | --- | --- | --- | --- | --- | --- | --- | --- | --- | --- |
| CC[C@@H]1NC(=O)[C@@H](CC(C)C)NC(=O)[C@H](CCN)NC(=O)[C@@H](NC(=O)[C@H](CN)NC(=O)[C@@H](NC(=O)[C@H](CCN)NC(=O)c2ccc(C(F)(F)F)cn2)[C@@H](C)O)CCNC(=O)[C@H]([C@@H](C)O)NC(=O)[C@H](CCN)NC(=O)[C@H](CCN)NC1=O [Compound 38] (X14-[Dab]T[Dap][Dab][Dab][dL][Abu][Dab][Dab]T; lactam 4-C) | 1 (≈ 0.862 µM) | 0.25 (≈ 0.215 µM) | <0.125 | 0.25 (≈ 0.215 µM) | 0.25 (≈ 0.215 µM) | 0.25 (≈ 0.215 µM) | <0.125 | <0.125 | 0.25 (≈ 0.215 µM) | 0.25 (≈ 0.215 µM) | 0.25 (≈ 0.215 µM) | 1 (≈ 0.862 µM) | 1 (≈ 0.862 µM) | 0.0 | 0 (SQS 0=no significant change (overall score, <1)) | – |
| CC[C@@H]1NC(=O)[C@@H](CC(C)C)NC(=O)[C@H](CCN)NC(=O)[C@@H](NC(=O)[C@H](CN)NC(=O)[C@@H](NC(=O)[C@H](CCN)NC(=O)c2nc3ccccc3s2)[C@@H](C)O)CCNC(=O)[C@H]([C@@H](C)O)NC(=O)[C@H](CCN)NC(=O)[C@H](CCN)NC1=O [Compound 70] (X52-[Dab]T[Dap][Dab][Dab][dL][Abu][Dab][Dab]T; lactam 4-C) | 0.5 (≈ 0.435 µM) | 1 (≈ 0.871 µM) | 0.25 (≈ 0.218 µM) | 0.25 (≈ 0.218 µM) | 0.25 (≈ 0.218 µM) | <0.125 | <0.125 | <0.125 | 0.5 (≈ 0.435 µM) | 0.25 (≈ 0.218 µM) | 0.5 (≈ 0.435 µM) | 1 (≈ 0.871 µM) | 0.5 (≈ 0.435 µM) | 0.0 | 0 (SQS 0=no significant change (overall score, <1)) | – |
| Colistin [reference compound] | 0.5 | 0.5 | 0.25 | <0.125 | <0.125 | 1 | 1 | <0.125 | 1 | 0.5 | 1 | 1 | 0.25 | 60.0 | +5 (SQS +5=severe damage (overall score, ≥60)) | severe nephrotoxicity |
